pIC50: −log10 of the molar value.
Each compound was assayed against T1, recombinant CETP (rCETP) (Homo sapiens, UniProt P11597) (assay: RTA assay using recombinant CETP (2% RTA)). Conditions: RTA assay in 2% human serum; read-out: IC50.
T1 sequence (P11597 18-493): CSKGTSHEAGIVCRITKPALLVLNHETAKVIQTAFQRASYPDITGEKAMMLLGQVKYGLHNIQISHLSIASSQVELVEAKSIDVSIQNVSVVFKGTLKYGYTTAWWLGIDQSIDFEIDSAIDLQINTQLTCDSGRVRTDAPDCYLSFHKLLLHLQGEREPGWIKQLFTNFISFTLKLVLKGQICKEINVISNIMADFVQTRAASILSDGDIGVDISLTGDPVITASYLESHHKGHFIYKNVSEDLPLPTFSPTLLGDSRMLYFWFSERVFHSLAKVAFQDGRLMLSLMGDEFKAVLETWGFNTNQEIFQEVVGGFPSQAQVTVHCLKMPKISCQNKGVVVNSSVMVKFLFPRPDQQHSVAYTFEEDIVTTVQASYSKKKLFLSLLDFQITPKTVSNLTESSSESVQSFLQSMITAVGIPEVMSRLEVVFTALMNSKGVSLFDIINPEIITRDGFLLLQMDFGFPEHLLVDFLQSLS
Format: biochemical
Method in brief: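 Compounds preincubated 1 h at 37 °C with assay cocktail (CETP buffer: 50 mM Tris pH 7.4, 100 mM NaCl, 1 mM EDTA; human HDL acceptor); transfer started with [3H]cholesteryl oleate- or [3H]triolein-labelled LDL, 60 min at 37 °C. LDL PEG-precipitated; supernatant counted by scintillation, blank-corrected; IC50 from 4-parameter sigmoidal fit of % inhibition vs DMSO control.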

Point of comparison: `CCOC(=O)C[C@@H]1CCc2cc(OC)c(-c3ccc(N4CCC4)nc3CN3C(=O)O[C@H](c4cccc(C(F)(F)F)c4)[C@@H]3C)cc21` [Example 204], pIC50 6.94. Against it:
- COc1ccc(CCC(=O)O)cc1-c1cnc(N2CCC2)nc1CN1C(=O)O[C@H](c2cc(C(F)(F)F)cc(C(F)(F)F)c2)[C@@H]1C [Example 171] — 0.28 log units higher, 7.22
- COc1ccc(CCC(=O)O)cc1-c1cnc(N2CC(F)C2)nc1CN1C(=O)O[C@H](c2cc(C(F)(F)F)cc(C(F)(F)F)c2)[C@@H]1C [Example 172] — 0.52 log units higher, 7.46
- C[C@H]1[C@@H](c2cc(C(F)(F)F)cc(C(F)(F)F)c2)OC(=O)N1Cc1nc(N2CCC2)ncc1-c1cc([C@H]2CC[C@H](C(=O)O)CC2)ccc1Cl [Example 173] — 0.74 log units higher, 7.68
- COc1ccc(CCC(=O)O)cc1-c1cnc(N2CC(F)(F)C2)nc1CN1C(=O)O[C@H](c2cc(C(F)(F)F)cc(C(F)(F)F)c2)[C@@H]1C [Example 174] — 0.80 log units higher, 7.74
- COc1ccc(C(C)(C)CC(=O)O)cc1-c1cnc(N2CCC2)nc1CN1C(=O)O[C@H](c2cc(C(F)(F)F)cc(C(F)(F)F)c2)[C@@H]1C [Example 175] — 0.20 log units higher, 7.14
- COc1ccc(CCC(=O)O)cc1-c1cnc(N2CC(OC)C2)nc1CN1C(=O)O[C@H](c2cc(C(F)(F)F)cc(C(F)(F)F)c2)[C@@H]1C [Example 176] — 0.56 log units lower, 6.38
- C[C@H]1[C@@H](c2cc(C(F)(F)F)cc(C(F)(F)F)c2)OC(=O)N1Cc1nc(N2CC(F)(F)C2)ncc1-c1cc([C@H]2CC[C@H](C(=O)O)CC2)ccc1Cl [Example 177] — 0.78 log units higher, 7.72
- Cc1cc(C(=O)O)ccc1-c1ccc(C)c(-c2cnc(N3CC(F)(F)C3)nc2CN2C(=O)O[C@H](c3cc(C(F)(F)F)cc(C(F)(F)F)c3)[C@@H]2C)c1 [Example 178] — 1.28 log units higher, 8.22
- COc1cc(F)c(-c2cnc(C(=O)O)cc2C)cc1-c1cnc(N2CC(F)(F)C2)nc1CN1C(=O)O[C@H](c2cc(C(F)(F)F)cc(C(F)(F)F)c2)[C@@H]1C [Example 183] — 0.91 log units higher, 7.85
- Cc1cc(C(=O)O)ccc1-c1cc(-c2cnc(N3CC(F)(F)C3)nc2CN2C(=O)O[C@H](c3cc(C(F)(F)F)cc(C(F)(F)F)c3)[C@@H]2C)ccc1F [Example 184, 5′-[4-({(4S,5R)-5-[3,5-bis(trifluoromethyl)phenyl]-4-methyl-2-oxo-1,3-oxazolidin-3-yl}methyl)-2-(3,3-difluoroazetidin-1-yl)pyrimidin-5-yl]-2′-fluoro-2-methylbiphenyl-4-carboxylic acid] — 0.98 log units higher, 7.92
- COc1ccc([C@H]2CC[C@H](C(=O)O)CC2)cc1-c1cnc(N2CC(F)C2)nc1CN1C(=O)O[C@H](c2cc(C(F)(F)F)cc(C(F)(F)F)c2)[C@@H]1C [Example 185] — 0.98 log units higher, 7.92
- COc1ccc([C@H]2CC[C@H](C(=O)O)CC2)cc1-c1cnc(N2CC(OC)C2)nc1CN1C(=O)O[C@H](c2cc(C(F)(F)F)cc(C(F)(F)F)c2)[C@@H]1C [Example 186] — within 0.2 log units, 6.86
- COc1c(F)cc(-n2ncc(C(=O)O)c2C(F)(F)F)cc1-c1cnc(N2CC(F)(F)C2)nc1CN1C(=O)O[C@H](c2cc(C(F)(F)F)cc(C(F)(F)F)c2)[C@@H]1C [Example 187] — 1.46 log units higher, 8.40
- COc1c(F)cc(-c2ncc(C(=O)O)cc2Cl)cc1-c1cnc(N2CC(F)(F)C2)nc1CN1C(=O)O[C@H](c2cc(C(F)(F)F)cc(C(F)(F)F)c2)[C@@H]1C [Example 188] — 0.80 log units higher, 7.74
- COc1cc(F)c(-c2ncc(C(=O)O)cc2Cl)cc1-c1cnc(N2CC(F)(F)C2)nc1CN1C(=O)O[C@H](c2cc(C(F)(F)F)cc(C(F)(F)F)c2)[C@@H]1C [Example 189] — 1.36 log units higher, 8.30
- COc1cc(F)c(-c2cc(C(F)(F)F)c(C(=O)O)cn2)cc1-c1cnc(N2CC(F)(F)C2)nc1CN1C(=O)O[C@H](c2cc(C(F)(F)F)cc(C(F)(F)F)c2)[C@@H]1C [Example 190] — within 0.2 log units, 6.84
- COc1ccc(-n2ncc(C(=O)O)c2C(F)(F)F)cc1-c1cnc(N2CC(F)(F)C2)nc1CN1C(=O)O[C@H](c2cc(C(F)(F)F)cc(C(F)(F)F)c2)[C@@H]1C [Example 191] — 1.11 log units higher, 8.05
- COc1ccc(CCC(=O)N2CCC2)cc1-c1cnc(N2CCC2)nc1CN1C(=O)O[C@H](c2cc(C(F)(F)F)cc(C(F)(F)F)c2)[C@@H]1C [Example 193] — within 0.2 log units, 6.98
- COc1ccc([C@H]2CC[C@H](C(=O)OC)CC2)cc1-c1ccc(N2CCC2)nc1CN1C(=O)O[C@H](c2cccc(C(F)(F)F)c2)[C@@H]1C [Example 194] — within 0.2 log units, 6.84
- COC(=O)CC(C)(C)c1ccc(OC)c(-c2ccc(N3CCC3)nc2CN2C(=O)O[C@H](c3cccc(C(F)(F)F)c3)[C@@H]2C)c1 [Example 195] — 0.42 log units higher, 7.36
- COc1ccc(CC(C)(C)C(=O)OC(C)(C)C)cc1-c1ccc(N2CCC2)nc1CN1C(=O)O[C@H](c2cccc(C(F)(F)F)c2)[C@@H]1C [Example 196] — 0.52 log units lower, 6.42
- CCOC(=O)CCc1ccc(OC)c(-c2ccc(N3CCC3)nc2CN2C(=O)O[C@H](c3cccc(C(F)(F)F)c3)[C@@H]2C)c1 [Example 197] — 0.29 log units higher, 7.23
- CCOC(=O)CCc1ccc(OC)c(-c2ccc(N3CCC3)nc2CN2C(=O)O[C@H](c3cc(C)cc(C)c3)[C@@H]2C)c1 [Example 198] — 0.36 log units higher, 7.30
- CCOC(=O)CCc1ccc(OC)c(-c2ccc(N3CCC3)nc2CN2C(=O)O[C@H](c3cccc(C)c3)[C@@H]2C)c1 [Example 199] — 0.31 log units lower, 6.63
- COc1ccc([C@H]2CC[C@H](C(=O)OC)CC2)cc1-c1ccc(N2CCC2)nc1CN1C(=O)O[C@H](c2cc(C)cc(C)c2)[C@@H]1C [Example 200] — 0.32 log units higher, 7.26
- COc1ccc([C@H]2CC[C@H](C(=O)OC)CC2)cc1-c1ccc(N2CCC2)nc1CN1C(=O)O[C@H](c2cccc(C)c2)[C@@H]1C [Example 201] — within 0.2 log units, 6.78
- COC(=O)CC(C)(C)c1ccc(OC)c(-c2ccc(N3CCC3)nc2CN2C(=O)O[C@H](c3cc(C)cc(C)c3)[C@@H]2C)c1 [Example 202] — 0.86 log units higher, 7.80
- COC(=O)CC(C)(C)c1ccc(OC)c(-c2ccc(N3CCC3)nc2CN2C(=O)O[C@H](c3cccc(C)c3)[C@@H]2C)c1 [Example 203] — within 0.2 log units, 6.97
- CCOC(=O)C[C@@H]1CCc2cc(OC)c(-c3ccc(N4CCC4)nc3CN3C(=O)O[C@H](c4cc(C)cc(C)c4)[C@@H]3C)cc21 [Example 205] — 0.33 log units higher, 7.27
- CCOC(=O)C[C@@H]1CCc2cc(OC)c(-c3ccc(N4CCC4)nc3CN3C(=O)O[C@H](c4cccc(C)c4)[C@@H]3C)cc21 [Example 206] — 0.25 log units lower, 6.69
- CCOC(=O)[C@@H]1C[C@H]1c1ccc(OC)c(-c2ccc(N3CCC3)nc2CN2C(=O)O[C@H](c3cccc(C(F)(F)F)c3)[C@@H]2C)c1 [Example 207] — 0.42 log units higher, 7.36
- CCOC(=O)[C@@H]1C[C@H]1c1ccc(OC)c(-c2ccc(N3CCC3)nc2CN2C(=O)O[C@H](c3cc(C)cc(C)c3)[C@@H]2C)c1 [Example 208] — 0.66 log units higher, 7.60
- CCOC(=O)[C@@H]1C[C@H]1c1ccc(OC)c(-c2ccc(N3CCC3)nc2CN2C(=O)O[C@H](c3cccc(C)c3)[C@@H]2C)c1 [Example 209] — within 0.2 log units, 7.00
- COC(=O)c1ccc(-c2ccc(OC)c(-c3ccc(N4CCC4)nc3CN3C(=O)O[C@H](c4cccc(C(F)(F)F)c4)[C@@H]3C)c2)c(C)c1 [Example 210] — 0.72 log units higher, 7.66
- COC(=O)c1ccc(-c2ccc(OC)c(-c3ccc(N4CCC4)nc3CN3C(=O)O[C@H](c4cc(C)cc(C)c4)[C@@H]3C)c2)c(C)c1 [Example 211] — 0.70 log units higher, 7.64
- COC(=O)c1ccc(-c2ccc(OC)c(-c3ccc(N4CCC4)nc3CN3C(=O)O[C@H](c4cccc(C)c4)[C@@H]3C)c2)c(C)c1 [Example 212] — within 0.2 log units, 7.12
- COC(=O)CCc1ccc(OC2CC2)c(-c2ccc(N3CCC3)nc2CN2C(=O)O[C@H](c3cc(C(F)(F)F)cc(C(F)(F)F)c3)[C@@H]2C)c1 [Example 213] — 0.91 log units higher, 7.85
- COC(=O)CCc1ccc(OC2CC2)c(-c2c(C)cc(N3CCC3)nc2CN2C(=O)O[C@H](c3cc(C(F)(F)F)cc(C(F)(F)F)c3)[C@@H]2C)c1 [Example 215] — 1.28 log units higher, 8.22
- COc1ccc([C@H]2CC[C@H](C(=O)O)CC2)cc1-c1ccc(N2CCC2)nc1CN1C(=O)O[C@H](c2cccc(C(F)(F)F)c2)[C@@H]1C [Example 219] — 0.42 log units higher, 7.36
- COc1ccc(C(C)(C)CC(=O)O)cc1-c1ccc(N2CCC2)nc1CN1C(=O)O[C@H](c2cccc(C(F)(F)F)c2)[C@@H]1C [Example 220] — 0.46 log units lower, 6.48
- COc1ccc(CC(C)(C)C(=O)O)cc1-c1ccc(N2CCC2)nc1CN1C(=O)O[C@H](c2cccc(C(F)(F)F)c2)[C@@H]1C [Example 221] — within 0.2 log units, 6.84
- COc1ccc(CCC(=O)O)cc1-c1ccc(N2CCC2)nc1CN1C(=O)O[C@H](c2cccc(C)c2)[C@@H]1C [Example 223] — 0.40 log units lower, 6.54
- COc1ccc([C@H]2CC[C@H](C(=O)O)CC2)cc1-c1ccc(N2CCC2)nc1CN1C(=O)O[C@H](c2cc(C)cc(C)c2)[C@@H]1C [Example 224] — 0.91 log units higher, 7.85
- COc1ccc([C@H]2CC[C@H](C(=O)O)CC2)cc1-c1ccc(N2CCC2)nc1CN1C(=O)O[C@H](c2cccc(C)c2)[C@@H]1C [Example 225] — 0.24 log units higher, 7.18
- COc1ccc(C(C)(C)CC(=O)O)cc1-c1ccc(N2CCC2)nc1CN1C(=O)O[C@H](c2cc(C)cc(C)c2)[C@@H]1C [Example 226] — within 0.2 log units, 6.96
- COc1ccc(CC(C)(C)C(=O)O)cc1-c1ccc(N2CCC2)nc1CN1C(=O)O[C@H](c2cc(C)cc(C)c2)[C@@H]1C [Example 227] — 0.25 log units higher, 7.19

Reference: US9221834B2 (Merck Sharp & Dohme Corp., priority 2010, dated 2015)
